From the NIST ThermoML archive (doi:10.1016/j.jct.2018.04.014)
Numbers after ± are expanded uncertainties.

Key:
[1] = xn = mol fraction of the nth substance listed; conditions: 93.4 kPa, Liquid, x2 = 0.059; for viscosity: Concentric cylinders viscometry; for mass density: Vibrating tube method
[2] = Liquid; for viscosity / mass density: 93.4 kPa; for viscosity: Concentric cylinders viscometry; for mass density: Vibrating tube method; for vapor or sublimation pressure: Closed cell (Static) method

In the case of C=CCn1cc[n+](C)c1.[Cl-] [1-allyl-3-methylimidazolium chloride] + O, the viscosity ([1]; 323.15 K) is reported as 212 ± 6 mPa·s, the mass density ([1]; 323.15 K) is reported as 1132.7 ± 1.1 kg/m3 and the viscosity ([1]; 333.15 K) is reported as 115 ± 3 mPa·s. The mass density ([1]; 333.15 K) was 1127.1 ± 1.1 kg/m3, the viscosity ([1]; 343.15 K) was 68.7 ± 1.6 mPa·s and the mass density ([1]; 343.15 K) was 1121.5 ± 1 kg/m3. The viscosity ([1]; 353.15 K) was 44 ± 1 mPa·s, the mass density ([1]; 353.15 K) was 1116 ± 1 kg/m3 and the viscosity ([1]; 363.15 K) was 30 ± 0.7 mPa·s. It also gave a mass density ([1]; 363.15 K) of 1110.5 ± 1 kg/m3, a viscosity ([1]; 373.15 K) of 21.4 ± 0.5 mPa·s and a mass density ([1]; 373.15 K) of 1105.2 ± 1 kg/m3.
With C[S+](C)[O-] [dimethyl sulfoxide] the viscosity ([2]; 293.15 K) was 2.26 ± 0.05 mPa·s, the mass density ([2]; 293.15 K) was 1101.2 ± 1.1 kg/m3 and the viscosity ([2]; 303.15 K) was 1.85 ± 0.04 mPa·s. It also gave a mass density ([2]; 303.15 K) of 1091.2 ± 1.1 kg/m3, a viscosity ([2]; 313.15 K) of 1.56 ± 0.04 mPa·s and a mass density ([2]; 313.15 K) of 1081.1 ± 1.1 kg/m3. The viscosity ([2]; 323.15 K) was 1.33 ± 0.03 mPa·s, the mass density ([2]; 323.15 K) was 1071.1 ± 1 kg/m3 and the viscosity ([2]; 333.15 K) was 1.16 ± 0.03 mPa·s. The mass density ([2]; 333.15 K) was 1061.2 ± 1 kg/m3, the viscosity ([2]; 343.15 K) was 1.02 ± 0.02 mPa·s and the mass density ([2]; 343.15 K) was 1051.3 ± 1 kg/m3. The “vapor or sublimation pressure” value ([2]; 353.1 K) was 2 ± 0.2 kPa, the viscosity ([2]; 353.15 K) was 0.905 ± 0.021 mPa·s and the mass density ([2]; 353.15 K) was 1041.1 ± 1 kg/m3. For the same compound, the “vapor or sublimation pressure” value ([2]; 363.1 K) was 3.2 ± 0.3 kPa, the viscosity ([2]; 363.15 K) was 0.815 ± 0.019 mPa·s and the mass density ([2]; 363.15 K) was 1031.3 ± 1 kg/m3. The “vapor or sublimation pressure” value ([2]; 373.1 K) was 5 ± 0.5 kPa, the viscosity ([2]; 373.15 K) was 0.741 ± 0.018 mPa·s and the mass density ([2]; 373.15 K) was 1021.4 ± 1 kg/m3. For the same compound, the “vapor or sublimation pressure” value ([2]; 383.1 K) was 7.6 ± 0.7 kPa, the “vapor or sublimation pressure” value ([2]; 393.1 K) was 11.2 ± 1 kPa and the “vapor or sublimation pressure” value ([2]; 403.1 K) was 16 ± 1.4 kPa. For the same compound, the “vapor or sublimation pressure” value ([2]; 413.1 K) was 22.7 ± 2 kPa, the “vapor or sublimation pressure” value ([2]; 423.1 K) was 31.6 ± 2.8 kPa and the “vapor or sublimation pressure” value ([2]; 433.1 K) was 43.2 ± 4.5 kPa.
